Values of other authors in PMC7775502, “Molecular Screening Strategy to Identify a Non-invasive Delivery Mechanism for the Treatment of Middle Ear Disorders” (Frontiers in Medicine, 2020).

Tests used:
[1] = test system: intact tympanic membrane (TM); conditions: peptide phage, incubation 1 h on the exterior surface of the TM, ref Kurabi et al. ([26])
Source text: Table 1 The sequences and ME recovery of the trans-TM, 12-mer backbone peptides (TMT-2 and TMT-3) plus the top 18-mer peptide phages from the 18-mer screen. | column: Mean recovery from ME (PFUs)

[2] = test system: intact TM of ex vivo ME bulla; conditions: review of the authors' earlier work
Method: In order to learn more about the mechanisms of phage transport phenomena, several experiments were designed to evaluate the impact of concentration, temperature, and oxygen levels on transport across the TM. […] Next, we tested the sensitivity of transport to oxygen deprivation and temperature using the ex vivo, intact ME bulla. When ME recovery of phage TMT-3 was assessed at various times after death, transport was observed up to 6 h postmortem, after which it ceased. Wh ...

[3] = test system: rat TM; conditions: in vitro two-chamber assay, ref [28]
Source text: (§1) We first tested trans-TM phage TMT-3 transport across TMs from NTHi-infected MEs of rats as well as from rats with normal MEs.

[4] = test system: rabbit TM fragments; conditions: in vitro two-chamber assay, uninfected MEs; ref [28]
Source text: as §1

[5] = test system: human TM; conditions: in vitro two-chamber assay, discarded TM fragments from patients undergoing TM repair; ref [28]
Source text: as §1

[6] = test system: guinea pig TM fragments; design: method as in PMID 30087425; conditions: in vitro two-chamber assay, uninfected MEs; ref [28]

Sequence	Mean recovery from ME (PFUs) [1]	other results
EGHLFPSADSTKTTHLTL [TMT-3(18)-1, M13 bacteriophage expressing 18-mer trans-TM peptide […] on pIII protein]	90,000 PFUs	–
KISVYRSADSTKTTHLTL [TMT-3(18)-2, M13 bacteriophage expressing 18-mer trans-TM peptide […] on pIII protein]	40,000 PFUs	–
LANNNLTLSPKMPGGGYW [TMT-2(18)-1, M13 bacteriophage expressing 18-mer trans-TM peptide […] on pIII protein]	120 PFUs	–
SADSTKTTHLTL [TMT-3, M13 bacteriophage expressing 12-mer trans-TM backbone peptide […] on pIII protein]	10,800 PFUs	Transport at lowered bulla temperature ([2]; 4°C, transport over 1 h): almost entirely eliminated; Time after death up to which transport was observed ([2]; ME recovery of phage at various times postmortem, transport ceased afterwards): up to 6 h; Transport across TMs from NTHi-infected MEs versus normal MEs ([3]; 1.5 mm chambers, rat TMs): no difference in transport; Transport across uninfected rat TM fragments compared with other species ([3]; uninfected MEs): similar; Transport across uninfected rabbit TM fragments compared with other species [4]: similar; Transport across human TM [5]: comparable levels; Transport across uninfected guinea pig TM fragments compared with other species [6]: similar
SPTIFSTLSPKMPGGGYW [TMT-2(18)-2, M13 bacteriophage expressing 18-mer trans-TM peptide […] on pIII protein]	12,000 PFUs	–
TEVTSRSADSTKTTHLTL [TMT-3(18)-3, M13 bacteriophage expressing 18-mer trans-TM peptide […] on pIII protein]	280 PFUs	–
TLSPKMPGGGYW [TMT-2, M13 bacteriophage expressing 12-mer trans-TM backbone peptide […] on pIII protein]	5,900 PFUs	–
VPQGATTLSPKMPGGGYW [TMT-2(18)-3, M13 bacteriophage expressing 18-mer trans-TM peptide […] on pIII protein]	3,000 PFUs	–
